Source: EP0280461A2, “Dobutamine salts” (ELI LILLY AND COMPANY, priority 1987, dated 1988)
Structures can show the parent of a compound that is named as a salt.

Experiment: aqueous solubility at 25°C
Type: physicochemical
Details: water

SMILES: CC(CCc1ccc(O)cc1)NCCc1ccc(O)c(O)c1 (racemic) [Dobutamine phosphate dibasic, dobutamine phosphate dibasic]
- solubility (room temperature (25°C)): ~25 mg/mL

SMILES: CC(CCc1ccc(O)cc1)NCCc1ccc(O)c(O)c1 (racemic) [dobutamine phosphate monobasic]
- solubility (at 25°C): ~2000 mg/mL

SMILES: CC(CCc1ccc(O)cc1)NCCc1ccc(O)c(O)c1 (stereo not shown) [dobutamine hydrobromide]
- aqueous solubility (room temperature (25°C), hydrobromide): about 28 mg per ml of water

SMILES: CC(CCc1ccc(O)cc1)NCCc1ccc(O)c(O)c1 (stereo not shown) [dobutamine hydrochloride]
- solubility (room temperature (25°C)): 28 mg/mL
